Data set [1] deals with Beet Armyworm (BAW) (Spodoptera exigua). Put plainly: Bioassay on Beet Armyworm (BAW), 128-well diet tray assay. Type of data set: in vivo. The conditions noted are these: Spodoptera exigua, read-out: BAW Rating. In a few lines: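 Artificial diet treated with 50 μg/cm^2 compound in 90:10 acetone-water was dried, then one to five second-instar larvae were placed per well, eight wells per compound. Trays were held at 25° C., 14:10 light-dark for five to seven days, and percent mortality averaged across wells.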

For data set [2], the system named is Corn Earworm (CEW) (Helicoverpa zea). Kind of data set: Bioassay on Corn Earworm (CEW), 128-well diet tray assay. Type of data set: in vivo. The following applies: Table 3: Assay Results Part 1, read-out: CEW Rating. The procedure: (§1) Certain molecules disclosed in this document were tested against BAW, CEW and CL using procedures described in the following examples. In the reporting of the results, the “BAW & CEW & CL Rating Table” was used (See Table Section).
Bioassays on CEW (Helicoverpa zea)
Bioassays on CEW were conducted using a 128-well diet tray assay. One to five second instar CEW larvae were placed in each well (3 mL) of the diet tray that had been previously filled with 1 mL of artificial diet to which 50 μg/cm^2 of the test compound (dissolved in 50 μL of 90:10 acetone-water mixture) had been applied (to each of eight wells) and then allowed to dry. Trays were covered with a clear self-adhesive cover, and held at 25° C., 14:10 light-dark for five to seven days. Percent mortality was recorded for the larvae in each well; activity in the eight wells was then averaged. The results are indicated in the table entitled “Table 3: Assay Results Part 1” (See Table Section).

Data set [3] has as its system Cabbage Looper (CL) (Trichoplusia ni). Put plainly: Bioassay on Cabbage Looper (CL), 128-well diet tray assay. Type of data set: in vivo. The conditions noted are these: Table 5: Prophetic Compounds Subsequently Exemplified, read-out: CL Rating. The procedure: as §1
Bioassays on CL (Trichoplusia ni)
Bioassays on CL were conducted using a 128-well diet tray assay. One to five second instar CL larvae were placed in each well (3 mL) of the diet tray that had been previously filled with 1 mL of artificial diet to which 50 μg/cm^2 of the test compound (dissolved in 50 μL of 90:10 acetone-water mixture) had been applied (to each of eight wells) and then allowed to dry. Trays were covered with a clear self-adhesive cover, and held at 25° C., 14:10 light-dark for five to seven days. Percent mortality was recorded for the larvae in each well; activity in the eight wells was then averaged. The results are indicated in the table entitled “Table 4: Assay Results Part 2” (See Table Section).

Data set [4] concerns Green Peach Aphid (GPA) (Myzus persicae). Kind of data set: Bioassay on Green Peach Aphid (GPA), foliar spray on cabbage seedlings. In kind it is in vivo. The following applies: 72 h, Table 5: Prophetic Compounds Subsequently Exemplified, read-out: GPA Rating. As to the method:
Certain molecules disclosed in this document were tested against GPA using procedures described in the following example. In the reporting of the results, the “GPA Rating Table” was used (See Table Section).
Cabbage seedlings grown in 3-inch pots, with 2-3 small (3-5 cm) true leaves, were used as test substrate. The seedlings were infested with 20-50 GPA (wingless adult and nymph stages) one day prior to chemical application. Four pots with individual seedlings were used for each treatment. Test compounds (2 mg) were dissolved in 2 mL of acetone/methanol (1:1) solvent, forming stock solutions of 1000 ppm test compound. The stock solutions were diluted 5× with 0.025% Tween 20 in H2O to obtain the solution at 200 ppm test compound. A hand-held aspirator-type sprayer was used for spraying a solution to both sides of […] leaves until runoff. Reference plants (solvent check) were sprayed with the diluent only containing 20% by volume of acetone/methanol (1:1) solvent. Treated plants were held in a holding room for three days at approximately 25° C. and ambient relative humidity (RH) prior to grading. Evaluation was conducted by counting the number of live aphids per plant under a microscope. Percent Control was measured by using Abbott's correction formula (W. S. Abbott, “A Method of Computing the Effectiveness of an Insecticide” J. Econ. Entomol. 18 (1925), pp. 265-267) as follows. Corrected % Control=100*(X−Y)/X • where • X=No. of live aphids on solvent check plants and • Y=No. of live aphids on treated plants
The results are indicated in the tables entitled “Table 3: Assay Results” and “Table 4: Assay Results Part 2” (See Table Section).

[5] abbreviates: Table 5: Prophetic Compounds Subsequently Exemplified.

The results in this text go back to patent US9212163B2, “Pesticidal compositions and processes related thereto” (Dow AgroSciences LLC, priority 2012, dated 2015).

Like-named read-outs stand apart in the source and are kept apart here.

The melting point is the temperature of the solid-liquid transition. The compound `NC(=O)c1ccc(/C=C/C(c2cc(Cl)cc(Cl)c2)C(F)(F)F)cc1` (stereo not drawn) [AC2] yielded a melting point of 110 to 112 °C.

As for `Cc1cc(/C=C/C(c2cc(Cl)cc(Cl)c2)C(F)(F)F)ccc1C(=O)NCC(=O)NCC(F)(F)F` (stereo not drawn) [AC24], the pest or weed control at 50 µg/cm2 in data set [1] (Table 3: Assay Results Part 1) and in data set [2] was 50 to 100% throughout.

For the compound `O=C(NC1(C(=O)NCC(F)(F)F)CC1)c1ccc(/C=C/C(c2ccc(Cl)c([N+](=O)[O-])c2)C(F)(F)F)cc1C(F)(F)F` (stereo not drawn) [Compound P470], the pest or weed control at 50 µg/cm2 in data set [1] (setting [5]) and in data set [3] was 50 to 100% each time. For the same compound, the pest or weed control at 200 µg/mL in data set [4] was 0 to 80%.

For the compound `CCNC(=O)C1(NC(=O)c2ccc(/C=C/C(c3cc(Cl)c(Cl)c(Cl)c3)C(F)(F)F)cc2C(F)(F)F)CC1` (stereo not drawn) [Compound P1025], the pest or weed control at 50 µg/cm2 in data set [1] (setting [5]) and in data set [3] was 50 to 100% throughout. In addition, the pest or weed control at 200 µg/mL in data set [4] was 0 to 80%.

Take `CCNC(=O)C1(NC(=O)c2ccc(/C=C/C(c3cc(Cl)c(Cl)c(Cl)c3)C(F)(F)F)cc2C)CC1` (stereo not drawn) [Compound P1026]: the pest or weed control at 50 µg/cm2 in data set [1] (setting [5]) and in data set [3] was 50 to 100% throughout. Besides, the pest or weed control at 200 µg/mL in data set [4] was 0 to 80%.
